Data: ChEMBL document CHEMBL5029177, “Synthetic enamine naphthoquinone derived from lawsone as cytotoxic agents assessed by in vitro and in silico evaluations” (Bioorg Med Chem Lett, 2021)
The source made the active and inactive calls. The calls are words filed in the database; no cut-off is given here.

Legend:
[1] = tested on: SNB-19; assay: Antiproliferative activity against human SNB-19 cells assessed as reduction in cell viability by MTT assay; format: functional, cell-based
[2] = tested on: HL-60; assay: Antiproliferative activity against human HL-60 cells assessed as reduction in cell viability by MTT assay; format: functional, cell-based
[3] = tested on: HCT-116; assay: Antiproliferative activity against human HCT-116 cells assessed as reduction in cell viability by MTT assay; format: functional, cell-based
[4] = tested on: PC-3; assay: Antiproliferative activity against human PC-3 cells assessed as reduction in cell viability by MTT assay; format: functional, cell-based
[5] = tested on: HCT-116; assay: Induction of cell cycle arrest in human HCT-116 cells after 24 hrs by PI-staining based flow cytometric analysis; format: functional
[6] = tested on: HCT-116; assay: Induction of cell cycle arrest in human HCT-116 cells assessed as accumulation at S phase at 20 uM after 24 hrs by PI-staining based flow cytometric analysis (reference value: 39.7%); format: functional

**Q.** How did the IC50 [1] turn out when `O=C1C=C(NCc2ccccc2)C(=O)c2ccccc21` was run?
**A.** Its IC50 is 80 µM.

**Q.** And the IC50 [2]?
**A.** Its IC50 is 86.5 µM.

**Q.** What about the IC50 [3] of the same compound?
**A.** Its IC50 is 130 µM.

**Q.** And the IC50 [4]?
**A.** Its IC50 is 70.6 µM.

**Q.** Which results are given for `CS(=O)(=O)OCCNC1=CC(=O)c2ccccc2C1=O`?
**A.** IC50 [1]: 31.2 µM; IC50 [2]: 27.5 µM; IC50 [3]: 16.3 µM; IC50 [4]: 62.8 µM

**Q.** Which results are given for `O=C1C=C(NCCCNc2ccnc3cc(Cl)ccc23)C(=O)c2ccccc21`?
**A.** IC50 [1]: 16.9 µM; IC50 [2]: 4.78 µM; IC50 [3]: 11.5 µM; Activity [5]: inactive; IC50 [4]: 8.39 µM

**Q.** Which IC50 [1] does the source give for `O=C1C=C(NCc2ccccn2)C(=O)c2ccccc21` here?
**A.** The IC50 was 23.1 µM.

**Q.** And the IC50 [2]?
**A.** The IC50 was 4.59 µM.

**Q.** And the IC50 [3]?
**A.** Its IC50 is 13.5 µM.

**Q.** What about the IC50 [4] of the same compound?
**A.** Its IC50 is 16.5 µM.

**Q.** And the Activity [6]?
**A.** The Activity was 47.57%.

**Q.** For `Cc1ccc(S(=O)(=O)OCCNC2=CC(=O)c3ccccc3C2=O)cc1`, which IC50 [1] is on record?
**A.** Its IC50 is 21.1 µM.

**Q.** And the IC50 [2]?
**A.** The IC50 was greater than 200 µM.

**Q.** What about the IC50 [3] of the same compound?
**A.** The IC50 was 81.8 µM.

**Q.** What about the IC50 [4] of the same compound?
**A.** The IC50 was 59.2 µM.

**Q.** Which results are given for `O=C1C=C(NCCO)C(=O)c2ccccc21`?
**A.** IC50 [1]: 108 µM; IC50 [2]: 49.8 µM; IC50 [3]: 70.3 µM; IC50 [4]: 107 µM

**Q.** How did the IC50 [1] turn out when `COc1cccc2c1C(=O)c1c(O)c3c(c(O)c1C2=O)C[C@@](O)(C(=O)CO)C[C@@H]3O[C@H]1C[C@H](N)[C@H](O)[C@H](C)O1` [DOXORUBICIN] was run?
**A.** Its IC50 is 0.76 µM.

**Q.** And the IC50 [2]?
**A.** The IC50 was 2.05 µM.

**Q.** `CNC1=CC(=O)c2ccccc2C1=O` was tested. Which IC50 [1] did it give?
**A.** Its IC50 is 114 µM.

**Q.** And the IC50 [2]?
**A.** The IC50 was 41.4 µM.

**Q.** What about the IC50 [3] of the same compound?
**A.** The IC50 was 55.7 µM.

**Q.** What about the IC50 [4] of the same compound?
**A.** The IC50 was 93.3 µM.

**Q.** Which results are given for `O=C1C=C(N2CCCC2)C(=O)c2ccccc21`?
**A.** IC50 [1]: > 200 µM; IC50 [2]: 111 µM; IC50 [3]: 159 µM; IC50 [4]: > 200 µM

**Q.** For `O=C1C=C(NCCCNc2nc(N3CCOCC3)nc(N3CCOCC3)n2)C(=O)c2ccccc21`, which IC50 [1] is on record?
**A.** Its IC50 is 126 µM.

**Q.** And the IC50 [2]?
**A.** The IC50 was 53.4 µM.

**Q.** What about the IC50 [3] of the same compound?
**A.** The IC50 was 57.5 µM.

**Q.** And the IC50 [4]?
**A.** The IC50 was 41.8 µM.

**Q.** With `O=c1[nH]cc(F)c(=O)[nH]1` [FLUOROURACIL] as the compound, how does the IC50 [3] read?
**A.** The IC50 was 19.3 µM.

**Q.** And the IC50 [4]?
**A.** Its IC50 is 32.9 µM.

**Q.** And the Activity [6]?
**A.** Its Activity is 66.6%.

**Q.** `NCCCNC1=CC(=O)c2ccccc2C1=O` was tested. Which IC50 [1] did it give?
**A.** Its IC50 is 71.3 µM.

**Q.** What about the IC50 [2] of the same compound?
**A.** The IC50 was 30 µM.

**Q.** And the IC50 [3]?
**A.** The IC50 was 59.6 µM.

**Q.** What about the IC50 [4] of the same compound?
**A.** Its IC50 is 63.2 µM.
